In US20100144818A1, “1-BENZYLPYRAZOLE DERIVATIVES, PREPARATION THEREOF AND THERAPEUTIC USE THEREOF” (SANOFI-AVENTIS, priority 2007, published 2010):

Legend:
[1] = Model of passage through the intestinal barrier constituted of Caco-2 cells; assay type: in vitro ADME; details: human, concentration=20 μM, apical pH=6.5 and basal pH=7.4, read-out: Ptot, coefficient of apparent permeability for the monolayer of intestinal epithelial cells plus filter
Source text: The compounds according to the invention were investigated on a model of passage through the intestinal barrier constituted of Caco-2 cells. (M. C. Grès, Pharm. Res., 1998, 15(5), 726-733). This model makes it possible to define the coefficient Ptot of apparent permeability of the product for the monolayer of intestinal epithelial cells plus filter. As examples, compounds No. 60 (ex. 5) and No. 90 (ex. 7) have, in this model, a Ptot of 111.97 and 64.5 respectively (10^−7 cm·s^−1; concentration=20 μM; apical pH=6.5 and basal pH=7.4). These values are predictive of total absorption in humans, after administration by the oral route.

| Papp at 20 μM [1] | melting point | Structure (SMILES) |
| --- | --- | --- |
| 11.2 ×10⁻⁶ cm/s |  | CC(C)(C)C(=O)NCc1cc(-c2ccc(Cl)c(Cl)c2)n(Cc2ccc(Cl)c(Cl)c2)n1 [Compound 60, N-((1-(3,4-Dichlorobenzyl)-5-(3,4-dichlorophenyl)-1H-pyrazol-3-yl)methyl)-2,2-dimethylpropanamide] |
|  | 181 °C | Cc1ccc(Cn2nc(CNC(=O)NC(C)(C)C)cc2-c2ccc(Cl)c(Cl)c2)cc1Cl [Compound 81, N-(tert-Butyl)-N′-((1-(3-chloro-4-methylbenzyl)-5-(3,4-dichlorophenyl)-1H-pyrazol-3-yl)methyl)urea] |
| 6.45 ×10⁻⁶ cm/s | 127 °C | CC(C)(C)S(=O)(=O)NCc1cc(-c2ccc(Cl)c(Cl)c2)n(Cc2ccc(Cl)c(Cl)c2)n1 [Compound 90, N-((1-(3,4-Dichlorobenzyl)-5-(3,4-dichlorophenyl)-1H-pyrazol-3-yl)methyl)-2-methylpropane-2-sulfonamide] |
